From ChEMBL document CHEMBL2440076, “New triarylpyrazoles as broad-spectrum anticancer agents: design, synthesis, and biological evaluation” (Eur J Med Chem, 2013)

Assays:
HCT-116 = experiment: Growth inhibition of human HCT116 cells after 48 hrs by sulforhodamine B assay; assay type: functional; conditions: HCT-116, 48 h; for CC50: read-out: LC50 (the source's name)
MDA-MB-468 = experiment: Growth inhibition of human MDA-MB-468 cells assessed as cell growth at 10 uM after 48 hrs by sulforhodamine B assay; assay type: functional; conditions: MDA-MB-468, 48 h, read-out: Activity
[1] = Growth inhibition of human HCC2998 cells assessed as cell growth at 10 uM after 48 hrs by sulforhodamine B assay; assay type: functional; conditions: HCC 2998, 48 h, read-out: Activity
SW-620 = experiment: Growth inhibition of human SW620 cells assessed as cell growth at 10 uM after 48 hrs by sulforhodamine B assay; assay type: functional; conditions: SW-620, 48 h, read-out: Activity
SF-539 = experiment: Growth inhibition of human SF539 cells assessed as cell growth at 10 uM after 48 hrs by sulforhodamine B assay; assay type: functional; conditions: SF-539, 48 h, read-out: Activity
SK-MEL-28 = experiment: Growth inhibition of human SK-MEL-28 cells assessed as cell growth at 10 uM after 48 hrs by sulforhodamine B assay; assay type: functional; conditions: SK-MEL-28, 48 h, read-out: Activity
[2] = Growth inhibition of human NCI-ADR-RES cells assessed as cell growth at 10 uM after 48 hrs by sulforhodamine B assay; assay type: functional; conditions: read-out: Activity
T47D [3] = experiment: Growth inhibition of human T47D cells assessed as cell growth at 10 uM after 48 hrs by sulforhodamine B assay; assay type: functional; conditions: read-out: Activity
MOLT-4 [4] = experiment: Growth inhibition of human MOLT4 cells after 48 hrs by sulforhodamine B assay; assay type: functional; conditions: MOLT-4, 48 h; for CC50: read-out: LC50 (the source's name)
HOP-92 = experiment: Growth inhibition of human HOP92 cells assessed as cell growth at 10 uM after 48 hrs by sulforhodamine B assay; assay type: functional; conditions: HOP-92, 48 h, read-out: Activity
HOP-62 = experiment: Growth inhibition of human HOP62 cells after 48 hrs by sulforhodamine B assay; assay type: functional; conditions: HOP-62, 48 h; for CC50: read-out: LC50 (the source's name)
A549 = experiment: Growth inhibition of human A549/ATCC cells assessed as cell growth at 10 uM after 48 hrs by sulforhodamine B assay; assay type: functional; conditions: A549, 48 h, read-out: Activity
SN12C = experiment: Growth inhibition of human SN12C cells after 48 hrs by sulforhodamine B assay; assay type: functional; conditions: for CC50: read-out: LC50 (the source's name)
[5] = Growth inhibition of human Hs 578T cells after 48 hrs by sulforhodamine B assay; assay type: functional; conditions: for CC50: read-out: LC50 (the source's name)
MOLT-4 [6] = experiment: Growth inhibition of human MOLT4 cells assessed as cell growth at 10 uM after 48 hrs by sulforhodamine B assay; assay type: functional; conditions: MOLT-4, 48 h, read-out: Activity
COLO 205 = experiment: Growth inhibition of human COLO205 cells after 48 hrs by sulforhodamine B assay; assay type: functional; conditions: COLO 205, 48 h
TK-10 [7] = experiment: Growth inhibition of human TK10 cells after 48 hrs by sulforhodamine B assay; assay type: functional; conditions: TK-10, 48 h; for CC50: read-out: LC50 (the source's name)
HCT-15 [8] = experiment: Growth inhibition of human HCT15 cells after 48 hrs by sulforhodamine B assay; assay type: functional; conditions: HCT-15, 48 h
NCI-H226 = experiment: Growth inhibition of human NCI-H226 cells after 48 hrs by sulforhodamine B assay; assay type: functional; conditions: NCI-H226, 48 h; for CC50: read-out: LC50 (the source's name)
MDA-MB-231 [9] = experiment: Growth inhibition of human MDA-MB-231 cells assessed as cell growth at 10 uM after 48 hrs by sulforhodamine B assay; assay type: functional; conditions: MDA-MB-231, 48 h, read-out: Activity
A498 = experiment: Growth inhibition of human A498 cells assessed as cell growth at 10 uM after 48 hrs by sulforhodamine B assay; assay type: functional; conditions: A498, 48 h, read-out: Activity
TK-10 [10] = experiment: Growth inhibition of human TK10 cells assessed as cell growth at 10 uM after 48 hrs by sulforhodamine B assay; assay type: functional; conditions: TK-10, 48 h, read-out: Activity
SF-295 = experiment: Growth inhibition of human SF295 cells after 48 hrs by sulforhodamine B assay; assay type: functional, cell-based; conditions: SF-295, 48 h; for CC50: read-out: LC50 (the source's name)
T47D [11] = experiment: Growth inhibition of human T47D cells after 48 hrs by sulforhodamine B assay; assay type: functional; conditions: for CC50: read-out: LC50 (the source's name)
HCT-15 [12] = experiment: Growth inhibition of human HCT15 cells assessed as cell growth at 10 uM after 48 hrs by sulforhodamine B assay; assay type: functional; conditions: HCT-15, 48 h, read-out: Activity
MDA-MB-435 [13] = experiment: Growth inhibition of human MDA-MB-435 cells assessed as cell growth at 10 uM after 48 hrs by sulforhodamine B assay; assay type: functional; conditions: MDA-MB-435, 48 h, read-out: Activity
HL-60(TB) = experiment: Growth inhibition of human HL-60(TB) cells assessed as cell growth at 10 uM after 48 hrs by sulforhodamine B assay; assay type: functional; conditions: HL-60, 48 h, read-out: Activity
RPMI-8226 = experiment: Growth inhibition of human RPMI8226 cells assessed as cell growth at 10 uM after 48 hrs by sulforhodamine B assay; assay type: functional; conditions: RPMI-8226, 48 h, read-out: Activity
CAKI-1 = experiment: Growth inhibition of human CAKI-1 cells after 48 hrs by sulforhodamine B assay; assay type: functional; conditions: CAKI-1, 48 h; for CC50: read-out: LC50 (the source's name)
PC-3 = experiment: Growth inhibition of human PC3 cells after 48 hrs by sulforhodamine B assay; assay type: functional, cell-based; conditions: PC-3, 48 h; for CC50: read-out: LC50 (the source's name)
[14] = Growth inhibition of human NCI-ADR-RES cells after 48 hrs by sulforhodamine B assay; assay type: functional; conditions: for CC50: read-out: LC50 (the source's name)
MDA-MB-231 [15] = experiment: Growth inhibition of human MDA-MB-231 cells after 48 hrs by sulforhodamine B assay; assay type: functional; conditions: MDA-MB-231, 48 h
MDA-MB-435 [16] = experiment: Growth inhibition of human MDA-MB-435 cells after 48 hrs by sulforhodamine B assay; assay type: functional, cell-based; conditions: MDA-MB-435, 48 h
Malme-3M = experiment: Growth inhibition of human MALME-3M cells after 48 hrs by sulforhodamine B assay; assay type: functional

COc1cc(-c2nn(-c3cccc(NC(=O)c4cccc(C(F)(F)F)c4)c3)cc2-c2ccncc2)ccc1Cl
GI50 (HCT-116): 1670 nM
TGI (HCT-116): > 50000 nM
CC50 (HCT-116): > 50000 nM
growth at 10 µM (MDA-MB-468): -19.4%
growth at 10 µM [1]: 0.91%
growth at 10 µM (SW-620): 36%
growth at 10 µM (SF-539): -48.8%
growth at 10 µM (SK-MEL-28): 32.5%
growth at 10 µM [2]: 2.75%
growth at 10 µM (T47D [3]): 29%
GI50 (MOLT-4 [4]): 2010 nM
TGI (MOLT-4 [4]): > 50000 nM
CC50 (MOLT-4 [4]): > 50000 nM
growth at 10 µM (HOP-92): -5.59%
TGI (HOP-62): > 50000 nM
CC50 (HOP-62): > 50000 nM
growth at 10 µM (A549): 7.4%
GI50 (SN12C): 3310 nM
TGI (SN12C): > 50000 nM
CC50 (SN12C): > 50000 nM
GI50 [5]: 1070 nM
TGI [5]: > 50000 nM
CC50 [5]: > 50000 nM
growth at 10 µM (MOLT-4 [6]): 8.63%
GI50 (COLO 205): 1640 nM
LC50 (concentration killing 50% of cells) (COLO 205): 24800 nM
TGI (COLO 205): 5170 nM
GI50 (TK-10 [7]): 3240 nM
TGI (TK-10 [7]): > 50000 nM
CC50 (TK-10 [7]): > 50000 nM
GI50 (HCT-15 [8]): 1550 nM
LC50 (HCT-15 [8]): > 50000 nM
TGI (HCT-15 [8]): > 50000 nM
GI50 (NCI-H226): 1660 nM
TGI (NCI-H226): 27000 nM
CC50 (NCI-H226): > 50000 nM
growth at 10 µM (MDA-MB-231 [9]): 4.67%
growth at 10 µM (A498): -19%
growth at 10 µM (TK-10 [10]): 8.08%
GI50 (SF-295): 1020 nM
IC50 (SF-295): 1020 nM
TGI (SF-295): 3000 nM
CC50 (SF-295): > 50000 nM
GI50 (T47D [11]): 2550 nM
TGI (T47D [11]): > 50000 nM
CC50 (T47D [11]): > 50000 nM
growth at 10 µM (HCT-15 [12]): 12.8%
growth at 10 µM (MDA-MB-435 [13]): -39.6%
growth at 10 µM (HL-60(TB)): 1.93%
growth at 10 µM (RPMI-8226): -1.13%
GI50 (CAKI-1): 2010 nM
TGI (CAKI-1): > 50000 nM
CC50 (CAKI-1): > 50000 nM
GI50 (PC-3): 1230 nM
IC50 (PC-3): 1230 nM
TGI (PC-3): > 50000 nM
CC50 (PC-3): > 50000 nM
GI50 [14]: 1090 nM
TGI [14]: 3170 nM
CC50 [14]: > 50000 nM
GI50 (MDA-MB-231 [15]): 1240 nM
LC50 (MDA-MB-231 [15]): > 50000 nM
TGI (MDA-MB-231 [15]): 9960 nM
GI50 (MDA-MB-435 [16]): 705 nM
IC50 (MDA-MB-435 [16]): 710 nM
TGI (MDA-MB-435 [16]): 1770 nM
GI50 (Malme-3M): 1990 nM
LC50 (concentration killing 50% of starting cells) (Malme-3M): > 50000 nM
TGI (Malme-3M): > 50000 nM

O=C(Nc1cccc(-n2cc(-c3ccncc3)c(-c3ccc(Cl)c(O)c3)n2)c1)Nc1cc(C(F)(F)F)cc(C(F)(F)F)c1
GI50 (HCT-116): 428 nM
TGI (HCT-116): 1110 nM
CC50 (HCT-116): 2650 nM
growth at 10 µM (MDA-MB-468): -23.9%
growth at 10 µM [1]: -56.9%
growth at 10 µM (SW-620): 3.32%
growth at 10 µM (SF-539): -63%
growth at 10 µM (SK-MEL-28): -62.4%
growth at 10 µM [2]: 4.72%
growth at 10 µM (T47D [3]): 12.1%
GI50 (MOLT-4 [4]): 1150 nM
TGI (MOLT-4 [4]): 4360 nM
CC50 (MOLT-4 [4]): > 50000 nM
growth at 10 µM (HOP-92): -45.8%
GI50 (HOP-62): 964 nM
TGI (HOP-62): 1980 nM
CC50 (HOP-62): 4070 nM
growth at 10 µM (A549): -32.5%
GI50 (SN12C): 1030 nM
TGI (SN12C): 5450 nM
CC50 (SN12C): > 50000 nM
GI50 [5]: 1140 nM
TGI [5]: 4080 nM
CC50 [5]: > 50000 nM
growth at 10 µM (MOLT-4 [6]): -18.5%
GI50 (COLO 205): 853 nM
LC50 (concentration killing 50% of cells) (COLO 205): 2920 nM
TGI (COLO 205): 1580 nM
GI50 (TK-10 [7]): 959 nM
TGI (TK-10 [7]): 3580 nM
CC50 (TK-10 [7]): 14200 nM
GI50 (HCT-15 [8]): 474 nM
LC50 (HCT-15 [8]): 21200 nM
TGI (HCT-15 [8]): 3520 nM
GI50 (NCI-H226): 1240 nM
TGI (NCI-H226): 6120 nM
CC50 (NCI-H226): 37600 nM
growth at 10 µM (MDA-MB-231 [9]): -88.9%
growth at 10 µM (A498): -18.6%
growth at 10 µM (TK-10 [10]): -24.6%
GI50 (SF-295): 618 nM
IC50 (SF-295): 620 nM
TGI (SF-295): 1650 nM
CC50 (SF-295): 4390 nM
GI50 (T47D [11]): 1820 nM
TGI (T47D [11]): 14000 nM
CC50 (T47D [11]): > 50000 nM
growth at 10 µM (HCT-15 [12]): -7.23%
growth at 10 µM (MDA-MB-435 [13]): -31.1%
growth at 10 µM (HL-60(TB)): -18.3%
growth at 10 µM (RPMI-8226): -10.9%
GI50 (CAKI-1): 1010 nM
TGI (CAKI-1): 4420 nM
CC50 (CAKI-1): 26500 nM
GI50 (PC-3): 319 nM
IC50 (PC-3): 320 nM
TGI (PC-3): 4370 nM
CC50 (PC-3): > 50000 nM
GI50 [14]: 1070 nM
TGI [14]: 5250 nM
CC50 [14]: 38700 nM
GI50 (MDA-MB-231 [15]): 739 nM
LC50 (MDA-MB-231 [15]): 3720 nM
TGI (MDA-MB-231 [15]): 1660 nM
GI50 (MDA-MB-435 [16]): 910 nM
IC50 (MDA-MB-435 [16]): 910 nM
TGI (MDA-MB-435 [16]): 2590 nM
CC50 (MDA-MB-435 [16]; read-out: LC50 (the source's name)): 15600 nM
GI50 (Malme-3M): 939 nM
LC50 (concentration killing 50% of starting cells) (Malme-3M): 23500 nM
TGI (Malme-3M): 3030 nM
